Series [1] deals with Stomach cancer cells, SNU-601. As to the kind of experiment: In vivo anti-cancer activity of hydrogel containing paclitaxel in nude mouse tumour model. As to conditions: 60 mg/kg, day 10 after administration, ten mice per group. The method, then:
A nude mouse (Oriental Bio, Balb/C, female of 5-weeks old, 20 g) was used as an animal model for animal experimentation for an in vivo test. Stomach cancer cells, SNU-601 (1×10^7 cells, 0.2 ml, Korean Cell Line Bank), were injected into the dorsum of the mouse. […] 0.2 ml of the solution was injected into the cancer cells, and the change in the size of the cells was measured. […] Each test was conducted for ten (10) mice for each of the control groups and the experimental groups.

In series [2] the target is T1, albumin (Bovine Serum Albumin; BSA) (Bos taurus, UniProt P02769).
T1 construct: 0.01% albumin solution (Bovine Serum Albumin; BSA, Wako chemical); purchased Wako chemical
T1 sequence (P02769 25-607): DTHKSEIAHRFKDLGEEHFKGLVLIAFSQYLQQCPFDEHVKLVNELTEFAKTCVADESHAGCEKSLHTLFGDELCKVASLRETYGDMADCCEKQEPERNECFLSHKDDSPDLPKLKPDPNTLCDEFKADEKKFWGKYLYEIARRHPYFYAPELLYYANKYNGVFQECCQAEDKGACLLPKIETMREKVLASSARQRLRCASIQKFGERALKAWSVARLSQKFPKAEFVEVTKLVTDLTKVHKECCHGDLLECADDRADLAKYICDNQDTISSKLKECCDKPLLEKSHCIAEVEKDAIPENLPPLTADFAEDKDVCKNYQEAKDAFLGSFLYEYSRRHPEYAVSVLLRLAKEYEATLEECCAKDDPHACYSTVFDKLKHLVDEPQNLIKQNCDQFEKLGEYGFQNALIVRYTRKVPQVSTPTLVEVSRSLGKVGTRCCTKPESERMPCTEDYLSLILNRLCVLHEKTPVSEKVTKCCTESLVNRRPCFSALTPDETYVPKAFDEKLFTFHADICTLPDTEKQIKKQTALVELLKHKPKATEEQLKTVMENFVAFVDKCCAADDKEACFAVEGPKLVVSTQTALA
As to the kind of experiment: Formation of ionic bond between additives and protein drug (polyacrylamide gel electrophoresis). As to conditions: additive 0.02, 0.1, 1 and 2 mg/ml in 0.01% albumin solution. Format: binding. As for the experimental part: In order to confirm the formation of an ion bond between the additives and drugs, gel electrophoresis was conducted. […] BSA, Wako chemical) at various concentrations (0.02, 0.1, 1 and 2 mg/ml) and sufficiently stirred.

For series [3] the following is noted: pH 7.4.
Experimental: The solutions were put into a chamber of a Brookfield DV-III+ Rheometer equipped with a thermostatic bath (TC-501). The sol-gel phase transition was observed while raising the temperature at the rate of 0.04° C./min and a shear rate of 0.1 to 1.7 per second.
(temperature)” means the temperature where the viscosity of the polymer solution reaches the maximum point, and the term “Max. gel solidity” means the maximum viscosity of the polymer solution.
Such two polymers with contrary properties were mixed in various mixture ratios, and then their sol-gel phase transition with temperature change was observed.

On to `CC(=O)O[C@H]1C(=O)[C@@]2(C)[C@H]([C@H](OC(=O)c3ccccc3)[C@]3(O)C[C@H](OC(=O)[C@H](O)[C@@H](NC(=O)c4ccccc4)c4ccccc4)C(C)=C1C3(C)C)[C@]1(OC(C)=O)CO[C@@H]1C[C@@H]2O` [paclitaxel], for which the “mice died due to toxicity” value in series [1] was determined as 8 mice.
Regarding protamine, the “ionic bond with albumin: development on polyacrylamide gel” value in series [2] is given as “worse development property of the gel as the concentration of the additive is higher”.
“poly[(isoleucine ethyl ester)(aminomethoxy polyethylene glycol 550)(aminoethylsuccinate)phosphazene] [Example 18]” showed a Max. gelling temp. in series [3] of 37 °C.
Same read-out and setting: as for “poly[(isoleucine ethyl-ester)(aminomethoxy polyethylene glycol 550)(glycylleucine)phosphazene] [Example 9]”, the figure is 46 °C; as for “poly[(isoleucine ethyl ester) (aminomethoxy polyethylene glycol 550)(aminoethylsuccinate)(aminoethylsuccinate ethylene hyaluronic acid)phosphazene] [Example 22]”, 38 °C.

For the origin of these results see patent US8075916B2, “Poly(organophosphazene) hydrogels for drug delivery, preparation method thereof and use thereof” (Korea Institute of Science and Technology, priority 2007, dated 2011).
